The values below come from patent publication US11306073B2, “N-acylurea derivative and composition comprising same for prevention or treatment of cardiovascular disease” (KOREA UNIVERSITY RESEARCH AND BUSINESS FOUNDATION, priority 2016, dated 2022).

In one assay the test system is CHO/αIIbβ3 cell line. In words: Screening of talin antagonist candidates: binding of CHO/αIIbβ3 cells to fibrinogen-coated plate (CCK-8 readout). The class given is cell-based. The settings on record: 0.2 mM of candidate; compared to a negative control; FIG. 2; read-out: inhibition of the binding between the CHO/αIIbβ3 cell line and fibrinogen. The method, then: Cells expressing platelet integrin αIIbβ3 were incubated with 0.2 mM of candidates, and the binding between the cells and fibrinogen was verified according to the experimental method shown in FIG. 1. In FIG. 2, 0% is a negative control and represents the degree to which cells adhere to a surface coated with bovine serum albumin (BSA) instead of fibrinogen, and 100% is a positive control and represents the degree to which cells adhere to fibrinogen in the absence of any candidate. The ability of candidates to inhibit fibrinogen binding was normalized to 100%, and the mean and standard error of three experiments are graphically shown.
Platelets bind to fibrinogen present in blood and produce thrombi. This binding is mediated by integrin αIIbβ3 present in the platelet cell membrane, and this integrin binds to fibrinogen after being activated by talin. In order to enable high-throughput efficacy testing by simplifying this procedure into a cell line-based experiment, integrin αIIbβ3 was first stably expressed in the CHO cell line using lentivirus, thereby constructing a CHO/αIIbβ3 cell line. The constructed cell line was cultured in a fibrinogen-coated 96-well plate for 1 hour and washed, after which the amount of remaining cells was measured to evaluate the efficacy of a talin antagonist candidate. In this procedure, in order to measure the relative amount of the CHO/αIIbβ3 cell line remaining in the well due to binding to fibrinogen, a cell counting kit-8 (CCK-8) was used to measure the activity of dehydrogenase present in the remaining cells. When the activity of dehydrogenase appeared due to the presence of the cells, the color of CCK-8 changed from yellow to orange (FIG. 1). To measure the degree to which the color changed to orange, the absorbance at a wavelength of 450 nm was measured with a plate reader. This enabled easy, fast and reliable high-throughput screening.
To screen talin antagonist candidates, inhibition of the binding affinity between the CHO/αIIbβ3 cell line and fibrinogen was examined by the above-described efficacy testing method.
As a result, it was shown that compounds, including KCH-1420, KCH-1424, KCH-1510, KCH-1511, KCH-1512, KCH-1513, KCH-1516, KCH-1518, KCH-1521, KCH-1523, KCH-1526, KCH-1529, KCH-1530, and KCH-1542 inhibited the binding between the CHO/αIIbβ3 cell line and fibrinogen by at least 80% compared to a negative control (FIG. 2). […] In FIG. 3, like FIG. 2, cells expressing platelet integrin αIIbβ3 were incubated with varying concentrations of a candidate, and the binding between the cells and fibrinogen was examined. Cell adhesion on the Y-axis is the relative degree of cell-fibrinogen binding.

Another assay has as its system mouse blood platelets. In words: Platelet aggregation inhibitory effect using mouse platelets activated by thrombin. The class given is cell-based. The settings on record: 0.2 mM compound, FIG. 5. The protocol: It is well known that platelets bind to fibrinogen in blood and form thrombi, which leads to the contraction of intracellular skeletal muscle due to signaling after the binding between activated integrin a αIIbβ3 and fibrinogen. To achieve this thrombus formation in vitro, mouse blood platelets were isolated and thrombin known as a platelet activator was added thereto. As a result, as shown in the left photograph of FIG. 5, the platelets were aggregated. However, when platelets were treated with thrombin in combination with KCH-1513 or KCH-1521, it was observed that platelet aggregation that was increased by thrombin decreased when 0.2 mM of KCH-1513 (middle photograph) or the same concentration of KCH-1521 (right photograph) was added.

For assay [1], the target named is T1, talin protein (6×His-tagged F2F3 protein) (Homo sapiens, UniProt Q9Y490).
T1 construct: 6×His-tagged F2F3 protein containing F3 was isolated and purified; 6×His; made in house
In words: Binding affinity between talin protein and candidate by surface plasmon resonance. The settings on record: SPR, talin F2F3 immobilized on sensor chip; FIG. 4; read-out: affinity constant. The protocol: To measure the binding affinity between the talin protein and a talin antagonist candidate, surface plasmon resonance spectroscopy was used. Specifically, a talin antagonist candidate was added to the talin protein immobilized on a sensor chip, and the affinity constant between the two substances was measured by surface plasmon resonance (hereinafter referred to as ‘SPR’) spectrometry.
Talin is divided into an N-terminal head domain and a C-terminal rod domain, and the head domain is further divided into four subdomains, F0, F1, F2 and F3. Among them, F3 is known as an integrin binding site. Thus, 6×His-tagged F2F3 protein containing F3 was isolated and purified. As a sensor chip for immobilizing the talin protein, HTEPBE10PO1 (Biorad) was used. SPR was measured using ProteON™ XPR36 (Biorad).

Some results are limits rather than exact numbers.

T1 sequence (Q9Y490 196-405 limits assumed): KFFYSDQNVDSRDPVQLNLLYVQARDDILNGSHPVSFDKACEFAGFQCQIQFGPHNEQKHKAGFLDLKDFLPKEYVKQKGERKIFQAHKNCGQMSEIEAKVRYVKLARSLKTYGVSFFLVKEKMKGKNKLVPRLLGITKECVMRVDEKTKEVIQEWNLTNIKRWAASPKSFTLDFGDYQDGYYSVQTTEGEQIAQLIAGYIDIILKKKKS

For the compound `Cc1cccc(OCC(=O)NC(=O)Nc2ccccc2F)c1C` [KCH-1420, 2-(2,3-dimethylphenoxy)-N-((2-fluorophenyl)carbamoyl)acetamide], the inhibition at 200 µM with CHO/αIIbβ3 cell line is no less than 80%.
On the same count and under the same terms, in the case of `COc1cc(NC(=O)NC(=O)COc2ccc3c(c2)OCO3)ccc1Br` [KCH-1518, 2-(benzo[d][1,3]dioxo1-5-yloxy)-N-((4-bromo-3-methoxyphenyl)carbamoyl) acetamide] it was no less than 80%.
On the same count and under the same terms, in the case of `CC(C)(C)OC(=O)N1CCN(CC(=O)NC(=O)Nc2ccccc2F)CC1` [KCH-1424, tert-butyl 4-(2-(3-(2-fluorophenyl)ureido)-2-oxoethyl)piperazine-1-carboxylate] it was no less than 80%; in that of `O=C(Cn1nnc(-c2ccccc2)n1)NC(=O)Nc1ccccc1F` [KCH-1516, N-((2-fluorophenyl)carbamoyl)-2-(5-phenyl-2H-tetrazol-2-yl)acetamide], no less than 80%.
With `O=C(Cn1nnc(-c2ccccc2)n1)NC(=O)NCCC1=CNC2C=CC=CC12` (stereo not drawn) [KCH-1513, N-((2-(3a,7a-dihydro-1H-indol-3-yl)ethyl)carbamoyl)-2-(5-phenyl-2H-tetrazol-2-yl)acetamide], the “inhibition of thrombin-induced platelet aggregation” value with mouse blood platelets is “significantly inhibit platelet aggregation”. Further, the inhibition at 200 µM with CHO/αIIbβ3 cell line is no less than 80%. Further, in assay [1], the Kd came to 9.33 mM.
In the case of `COc1cc(NC(=O)NC(=O)Cn2nnc(-c3ccccc3)n2)ccc1Br` [KCH-1510, N-((4-bromo-3-methoxyphenyl)carbamoyl)-2-(5-phenyl-2H-tetrazol-2-yl)acetamide], in the assay on CHO/αIIbβ3 cell line, the inhibition at 200 µM is no less than 80%.
The same measure, in the same setting: for `O=C(COc1ccc2c(c1)OCO2)NC(=O)Nc1ccc(OCc2ccccc2)cc1` [KCH-1523, 2-(benzo[d][1,3]dioxol-5-yloxy)-N-((4-(benzyloxy)phenyl)carbamoyl) acetamide] the value was no less than 80%.
In the case of `O=C(COc1ccc2c(c1)OCO2)NC(=O)NCCc1c[nH]c2ccccc12` [KCH-1521], the “inhibition of thrombin-induced platelet aggregation” value in the assay with mouse blood platelets is “significantly inhibit platelet aggregation”. Besides, the inhibition at 200 µM with CHO/αIIbβ3 cell line was no less than 80%. The Kd in assay [1] was 0.271 mM.
For `COc1cc(NC(=O)NC(=O)COc2ccccc2OC)ccc1Br` [KCH-1526, N-((4-bromo-3-methoxyphenyl)carbamoyl)-2-(2-methoxyphenoxy)acetamide], in the assay with CHO/αIIbβ3 cell line, the inhibition at 200 µM was no less than 80%.
Same read-out and setting: in the case of `O=C(Cn1nnc(-c2ccccc2)n1)NC(=O)Nc1ccc(Oc2ccccc2)cc1` [KCH-1511, N-((4-phenoxyphenyl)carbamoyl)-2-(5-phenyl-2H-tetrazol-2-yl)acetamide] it was no less than 80%; in that of `COc1ccc(NC(=O)NC(=O)COc2ccccc2OC)c(OC)c1` [KCH-1530, N-((2,4-dimethoxyphenyl)carbamoyl)-2-(2-methoxyphenoxy)acetamide], no less than 80%; in that of `COc1ccc(NC(=O)NC(=O)COc2cccc(Br)c2)c(OC)c1` [KCH-1542, 2-(3-bromophenoxy)-N-((2,4-dimethoxyphenyl)carbamoyl)acetamide], no less than 80%.
On the same count and under the same terms, in the case of `COc1ccccc1OCC(=O)NC(=O)NCCc1c[nH]c2ccccc12` [KCH-1529, N-((2-(1H-indol-3-yl)ethyl)carbamoyl)-2-(2-methoxyphenoxy)acetamide] it was no less than 80%.
On the same count and under the same terms, for `COc1ccc(CNC(=O)NC(=O)Cn2nnc(-c3ccccc3)n2)cc1` [KCH-1512, N-((4-methoxybenzyl)carbamoyl)-2-(5-phenyl-2H-tetrazol-2-yl)acetamide] the value was no less than 80%.
